According to patent publication US8399497B2, “Thiazole derivatives and use thereof” (Merck Serono SA, priority 2005, dated 2013):

molecular target: Human recombinant GST-PI3Kγ (Homo sapiens, UniProt P48736); test: High throughput PI3K lipid kinase assay (SPA, neomycin-coated beads); type: biochemical
Description: a) High Throughput PI3K Lipid Kinase Assay (Binding Assay):
The efficacy of compounds of the invention in inhibiting the PI3K induced-lipid phosphorylation may be tested in the following binding assay.
The assay combines the scintillation proximity assay technology (SPA, Amersham) with the capacity of neomycin (a polycationic antibiotic) to bind phospholipids with high affinity and specificity. The Scintillation Proximity Assay is based on the properties of weakly emitting isotopes (such as ^3H, ^125I, ^33P). Coating SPA beads with neomycin allows the detection of phosphorylated lipid substrates after incubation with recombinant PI3K and radioactive ATP in the same well, by capturing the radioactive phospholipids to the SPA beads through their specific binding to neomycin.
To a 384 wells MTP containing 5 μl of the test compound of Formula (I) (solubilized in 6% DMSO; to yield a concentration of 100, 30, 10, 3, 1, 0.3, 0.1, 0.03, 0.01, 01 μM of the test compound), the following assay components are added. 1) 5 μl (58 ng) of Human recombinant GST-PI3Kγ (in Hepes 40 mM, pH 7.4, DTT 1 mM and ethylenglycol 5%) 2) 10 μl of lipid micelles and 3) 10 μl of Kinase buffer ([^33P]γ-ATP 45 μM/60 nCi, MgCl2 30 mM, DTT 1 mM, β-Glycerophosphate 1 mM, Na3VO4 100 μM, Na Cholate 0.3%, in Hepes 40 mM, pH 7.4). After incubation at room temperature for 180 minutes, with gentle agitation, the reaction is stopped by addition of 60 μl of a solution containing 100 μg of neomycin-coated PVT SPA beads in PBS containing ATP 10 mM and EDTA 5 mM. The assay is further incubated at room temperature for 60 minutes with gentle agitation to allow binding of phospholipids to neomycin-SPA beads. After precipitation of the neomycin-coated PVT SPA beads for 5 minutes at 1500×g, radioactive PtdIns(3)P is quantified by scintillation counting in a Wallac MicroBeta™ plate counter.
The values indicated in Table II below refer to the IC50 (μM) with respect to PI3Kγ, i.e. the amount necessary to achieve 50% inhibition of said target. Said values show a considerable inhibitory potency of thiazole compounds with regard to PI3Kγ.

Human recombinant GST-PI3Kγ, sequence (P48736 whole entry): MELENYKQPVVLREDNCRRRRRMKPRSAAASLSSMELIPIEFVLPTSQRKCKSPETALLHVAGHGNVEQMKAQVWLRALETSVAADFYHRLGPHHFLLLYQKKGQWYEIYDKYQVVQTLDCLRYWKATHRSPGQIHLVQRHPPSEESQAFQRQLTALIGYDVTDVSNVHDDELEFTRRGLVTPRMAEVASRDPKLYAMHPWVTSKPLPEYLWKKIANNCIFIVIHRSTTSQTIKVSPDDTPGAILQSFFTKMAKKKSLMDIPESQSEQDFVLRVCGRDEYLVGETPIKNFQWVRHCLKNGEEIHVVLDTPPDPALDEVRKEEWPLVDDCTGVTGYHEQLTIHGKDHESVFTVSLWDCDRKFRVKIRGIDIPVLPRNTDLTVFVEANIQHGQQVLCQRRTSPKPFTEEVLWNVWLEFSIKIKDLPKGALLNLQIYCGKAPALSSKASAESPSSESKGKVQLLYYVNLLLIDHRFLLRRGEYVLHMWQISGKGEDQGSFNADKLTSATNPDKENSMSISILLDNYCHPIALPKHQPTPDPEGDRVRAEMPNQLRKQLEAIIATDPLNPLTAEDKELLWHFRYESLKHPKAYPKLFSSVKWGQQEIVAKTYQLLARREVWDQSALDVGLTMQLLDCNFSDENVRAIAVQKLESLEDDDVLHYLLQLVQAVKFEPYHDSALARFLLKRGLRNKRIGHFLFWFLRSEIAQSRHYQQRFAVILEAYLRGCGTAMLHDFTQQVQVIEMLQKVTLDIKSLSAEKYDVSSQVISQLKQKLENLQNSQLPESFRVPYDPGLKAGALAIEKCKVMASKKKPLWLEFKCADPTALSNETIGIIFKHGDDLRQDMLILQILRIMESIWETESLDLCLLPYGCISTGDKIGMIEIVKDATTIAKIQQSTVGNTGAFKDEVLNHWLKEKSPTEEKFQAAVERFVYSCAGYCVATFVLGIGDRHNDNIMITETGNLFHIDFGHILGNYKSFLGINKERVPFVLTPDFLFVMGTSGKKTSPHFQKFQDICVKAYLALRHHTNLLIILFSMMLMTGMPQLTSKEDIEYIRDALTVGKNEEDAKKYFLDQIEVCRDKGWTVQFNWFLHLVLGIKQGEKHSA

Row | Structure (SMILES) | IC50 [nM]
1 | CC(=O)Nc1nc(C)c(-c2ccc(S(=O)(=O)N3CCN(C(C)=O)CC3)s2)s1 [Example 2, N-(5-{5-[(4-acetylpiperazin-1-yl)sulfonyl]-2-thienyl}-4-methyl-1,3-thiazol-2-yl)acetamide] | 396
2 | CC(=O)Nc1nc(C)c(-c2ccc(S(=O)(=O)N(C)CCN(C)C)s2)s1 [Example 5, N-[5-(5-{[[2-(dimethylamino)ethyl](methyl)amino]sulfonyl}-2-thienyl)-4-methyl-1,3-thiazol-2-yl]acetamide] | 20
3 | COC(=O)CCCC(=O)Nc1nc(C)c(-c2ccc(S(=O)(=O)NCCN3CCOCC3)s2)s1 [Example 7, methyl 5-{[4-methyl-5-(5-{[(2-morpholin-4-ylethyl)amino]sulfonyl}-2-thienyl)-1,3-thiazol-2-yl]amino}-5-oxopentanoate] | 1200
4 | CC(=O)Nc1nc(C)c(-c2ccc(S(=O)(=O)N3CCN(C)CC3)s2)s1 [Example 8, N-(4-methyl-5-{5-[(4-methylpiperazin-1-yl)sulfonyl]-2-thienyl}-1,3-thiazol-2-yl)acetamide] | 170
5 | CC(=O)NCCNS(=O)(=O)c1ccc(-c2sc(NC(C)=O)nc2C)s1 [Example 13, N-{5-[5-({[2-(acetylamino)ethyl]amino}sulfonyl)-2-thienyl]-4-methyl-1,3-thiazol-2-yl}acetamide] | 109
6 | COC(=O)[C@H](CO)NS(=O)(=O)c1ccc(-c2sc(NC(C)=O)nc2C)s1 [Example 15, methyl N-({5-[2-(acetylamino)-4-methyl-1,3-thiazol-5-yl]-2-thienyl}sulfonyl)serinate] | 70
7 | CC(=O)Nc1nc(C)c(-c2ccc(S(=O)(=O)N[C@@H](CO)C(=O)O)s2)s1 [Example 16, N-({5-[2-(acetylamino)-4-methyl-1,3-thiazol-5-yl]-2-thienyl}sulfonyl)serine] | 373
8 | CC(=O)Nc1nc(C)c(-c2ccc(S(=O)(=O)NCC(O)CO)s2)s1 (stereo not drawn) [Example 17, N-[5-(5-{[(2,3-dihydroxypropyl)amino]sulfonyl}-2-thienyl)-4-methyl-1,3-thiazol-2-yl]acetamide] | 71

Further compounds by falling IC50, results first:

Row | IC50 [nM] | Structure (SMILES)
9 | 522 | CNC(=O)CNS(=O)(=O)c1ccc(-c2sc(NC(C)=O)nc2C)s1 [Example 12, N~2~-({5-[2-(acetylamino)-4-methyl-1,3-thiazol-5-yl]-2-thienyl}sulfonyl)-N~1~-methylglycinamide]
10 | 298 | CC(=O)Nc1nc(C)c(-c2ccc(S(=O)(=O)NC3CCN(C)CC3)s2)s1 [Example 4, N-[4-methyl-5-(5-{[(1-methylpiperidin-4-yl)amino]sulfonyl}-2-thienyl)-1,3-thiazol-2-yl]acetamide]
11 | 200 | CC(=O)Nc1nc(C)c(-c2ccc(S(=O)(=O)N3CCNCC3)s2)s1 [Example 11, N-{4-methyl-5-[5-(piperazin-1-ylsulfonyl)-2-thienyl]-1,3-thiazol-2-yl}acetamide]
12 | 198 | CC(=O)Nc1nc(C)c(-c2ccc(S(=O)(=O)NCC3COC(C)(C)O3)s2)s1 (stereo not drawn) [Example 14, N-{5-[5-({[(2,2-dimethyl-1,3-dioxolan-4-yl)methyl]amino}sulfonyl)-2-thienyl]-4-methyl-1,3-thiazol-2-yl}acetamide]
13 | 105 | CC(=O)Nc1nc(C)c(-c2ccc(S(=O)(=O)N(C)C)s2)s1 [Example 18, N-(5-{5-[(dimethylamino)sulfonyl]-2-thienyl}-4-methyl-1,3-thiazol-2-yl)acetamide]
14 | 67 | CC(=O)Nc1nc(C)c(-c2csc(S(=O)(=O)N3CCNCC3)c2)s1 [Example 26, N-{4-methyl-5-[5-(piperazin-1-ylsulfonyl)-3-thienyl]-1,3-thiazol-2-yl}acetamide]
15 | 16 | CC(=O)Nc1nc(C)c(-c2csc(S(=O)(=O)NCCN3CCOCC3)c2)s1 [Example 24, N-[4-methyl-5-(5-{[(2-morpholin-4-ylethyl)amino]sulfonyl}-3-thienyl)-1,3-thiazol-2-yl]acetamide]
